Measurements: PMC12491383, “Organ and tumour dosimetry of ^177Lu-rhPSMA-10.1, a novel PSMA-targeted therapy: results from a Phase I trial” (European Journal of Nuclear Medicine and Molecular Imaging, 2025)

Test: SPECT/CT image-based normal organ dosimetry (MIRD S-value methodology), Phase I BET-PSMA-121
Type: in vivo, human
Settings: for Cumulative Absorbed Dose, Bone Marrow, % of dose limit / Cumulative Absorbed Dose, Kidney, % of dose limit / Cumulative Absorbed Dose, Salivary Glands, % of dose limit / Cumulative Absorbed Dose, Bone Marrow / Cumulative Absorbed Dose, Kidney / Cumulative Absorbed Dose, Salivary Glands: Cohort B; for Cumulative Absorbed Dose, Bone Marrow, % of dose limit: limit 2 Gy; for Cumulative Absorbed Dose, Salivary Glands, % of dose limit: limit 24 Gy
Description: Figure 1 provides a schematic representation of the study. Enrolled patients were sequentially entered into one of the two cohorts. Cohort A received 5.55 GBq (150 mCi) of ^177Lu-rhPSMA-10.1 and Cohort B received 7.40 GBq (200 mCi) of ^177Lu-rhPSMA-10.1. Subsequent doses were delivered at 6-week intervals subject to individual tolerability and safety assessments. Each patient received between one and three cycles, with a maximum of three cycles of treatment being permitted in this initial part of the study. All administrations of ^177Lu-rhPSMA-10.1 were performed using intravenous injection under the supervision of the treating physician.
Multi-bed single-photon emission computed tomography (SPECT)/CT was conducted at 3-, 24-, 48- and 168-hours post-^177Lu-rhPSMA-10.1 administration in each treatment cycle for the estimation of organ and tumour absorbed doses in each patient. Prior to commencement of the study, each investigating site was required to complete a calibration of their dose calibrator and SPECT/CT system to ensure harmonised quantification of the imaging data. Quantitative reconstructions and all dosimetry analyses were carried out centrally by an independent dosimetry vendor (Radiopharmaceutical Imaging and Dosimetry LLC, Baltimore, MD).
The specific absorbed doses (Gy/GBq) in normal organs and tumours were determined using the Medical Internal Radiation Dose (MIRD) Committee S-value methodology. Individual patient organ masses, determined via CT delineation, were scaled to reflect deviations from reference phantom geometry. Cumulative organ absorbed doses (Gy) were calculated across all treatment cycles. Further details on dosimetry methodology are provided in the supplemental materials and have been reported in accordance with EANM guidance.
All patients underwent multi-bed single-photon emission computed tomography (SPECT)/CT at 3-, 24-, 48- and 168-hours post-^177Lu-rhPSMA-10.1 administration during each treatment cycle. The acquisition parameters are shown in Supplemental Table S1. All images were centrally reconstructed in 3D-RD-S using the iterative Ordered Subsets Expectation-Maximization (OSEM) algorithm with 40 iterations and 5 subsets. Attenuation, scatter, and the Collimator-Detector Response Function (CDRF) were modelled during the iterative process using a rotation-based projector. CT-based attenuation compensation was performed using the attenuation map generated from the CT image. Scatter was modelled using the Effective Source Scatter Estimation (ESSE) method.
Reconstructed images were converted to activity concentration units (Becquerel (Bq)/millilitre (mL)) using the calibration factor generated for each individual imaging system. Organ masses were individually determined using CT-based delineations and longitudinal SPECT activity statistics were based on these same delineations.
Time integrated activity coefficients (TIACs) were calculated for each target tissue. This was done by fitting each time–activity curve with an exponential function (mono, bi, or exponential uptake and washout) and integrating from time 0 to infinity. The simpler function was preferred provided the fit was adequate ([…]).
The TIAC in the bone marrow was derived from contours drawn around the marrow inside lumbar vertebrae L3–L5. Where lesions were present in the lumbar area, contours were drawn around either the femur heads, scapula or sternum depending on the anatomical coverage. The TIAC was then divided by the marrow mass in this region to give the TIAC concentration. The total bone marrow TIAC was be obtained as the product of this concentration and the standard International Commission on Radiological Protection (ICRP) bone marrow mass.
The S-value methodology was used to estimate the target tissue dose. […]

[1] = Patient 4, 3 cycles, 22.94 GBq cumulative
[2] = Patient 5, 3 cycles, 22.29 GBq cumulative
[3] = Patient 6, 3 cycles, 22.59 GBq cumulative
[4] = Patient 7, 3 cycles, 22.29 GBq cumulative
[5] = Patient 8, 3 cycles, 22.86 GBq cumulative
[6] = Patient 9, 3 cycles, 22.10 GBq cumulative
[7] = Patient 10, 3 cycles, 23.30 GBq cumulative
[8] = Patient 11, 1 cycle, 7.80 GBq cumulative
[9] = Patient 12, 1 cycle, 7.46 GBq cumulative
[10] = Patient 13, 3 cycles, 22.23 GBq cumulative

CC(C)(C)[Si](F)(c1ccc(C(=O)NC[C@@H](NC(=O)CN2CCN(CC(=O)[O-])CCN(CC(=O)[O-])CCN(CC(=O)[O-])CC2)C(=O)N[C@H](CCCCNC(=O)CCC(=O)NCCC[C@@H](NC(=O)CC[C@H](NC(=O)N[C@@H](CCC(=O)O)C(=O)O)C(=O)O)C(=O)O)C(=O)O)cc1)C(C)(C)C.[177Lu+3] [^177Lu-rhPSMA-10.1]
Cumulative Absorbed Dose, Bone Marrow, % of dose limit [1]: 6.5%
Cumulative Absorbed Dose, Kidney, % of dose limit (Patient 4, 3 cycles, 22.94 GBq cumulative, limit 23 Gy): 36%
Cumulative Absorbed Dose, Salivary Glands, % of dose limit [1]: 12%
Cumulative Absorbed Dose, Bone Marrow [2]: 0.07 Gy
Cumulative Absorbed Dose, Kidney [2]: 6.25 Gy
Cumulative Absorbed Dose, Salivary Glands [2]: 2.85 Gy
Cumulative Absorbed Dose, Bone Marrow, % of dose limit [2]: 3.5%
Cumulative Absorbed Dose, Kidney, % of dose limit (Patient 5, 3 cycles, 22.29 GBq cumulative, limit 23 Gy): 27%
Cumulative Absorbed Dose, Salivary Glands, % of dose limit [2]: 12%
Cumulative Absorbed Dose, Bone Marrow [3]: 0.42 Gy
Cumulative Absorbed Dose, Kidney [3]: 7.31 Gy
Cumulative Absorbed Dose, Salivary Glands [3]: 2.87 Gy
Cumulative Absorbed Dose, Bone Marrow, % of dose limit [3]: 21%
Cumulative Absorbed Dose, Kidney, % of dose limit (Patient 6, 3 cycles, 22.59 GBq cumulative, limit 23 Gy): 32%
Cumulative Absorbed Dose, Salivary Glands, % of dose limit [3]: 12%
Cumulative Absorbed Dose, Bone Marrow [4]: 0.05 Gy
Cumulative Absorbed Dose, Kidney [4]: 4.02 Gy
Cumulative Absorbed Dose, Salivary Glands [4]: 2.88 Gy
Cumulative Absorbed Dose, Bone Marrow, % of dose limit [4]: 2.5%
Cumulative Absorbed Dose, Kidney, % of dose limit (Patient 7, 3 cycles, 22.29 GBq cumulative, limit 23 Gy): 17%
Cumulative Absorbed Dose, Salivary Glands, % of dose limit [4]: 12%
Cumulative Absorbed Dose, Bone Marrow [5]: 0.24 Gy
Cumulative Absorbed Dose, Kidney [5]: 5.18 Gy
Cumulative Absorbed Dose, Salivary Glands [5]: 1.17 Gy
Cumulative Absorbed Dose, Bone Marrow, % of dose limit [5]: 12%
Cumulative Absorbed Dose, Kidney, % of dose limit (Patient 8, 3 cycles, 22.86 GBq cumulative, limit 23 Gy): 23%
Cumulative Absorbed Dose, Salivary Glands, % of dose limit [5]: 4.9%
Cumulative Absorbed Dose, Bone Marrow [6]: 0.05 Gy
Cumulative Absorbed Dose, Kidney [6]: 5.18 Gy
Cumulative Absorbed Dose, Salivary Glands [6]: 2.00 Gy
Cumulative Absorbed Dose, Bone Marrow, % of dose limit [6]: 2.5%
Cumulative Absorbed Dose, Kidney, % of dose limit (Patient 9, 3 cycles, 22.10 GBq cumulative, limit 23 Gy): 23%
Cumulative Absorbed Dose, Salivary Glands, % of dose limit [6]: 8.3%
Cumulative Absorbed Dose, Bone Marrow [7]: 0.03 Gy
Cumulative Absorbed Dose, Kidney [7]: 4.29 Gy
Cumulative Absorbed Dose, Salivary Glands [7]: 0.82 Gy
Cumulative Absorbed Dose, Bone Marrow, % of dose limit [7]: 1.5%
Cumulative Absorbed Dose, Kidney, % of dose limit (Patient 10, 3 cycles, 23.30 GBq cumulative, limit 23 Gy): 19%
Cumulative Absorbed Dose, Salivary Glands, % of dose limit [7]: 3.4%
Cumulative Absorbed Dose, Bone Marrow [8]: 0.23 Gy
Cumulative Absorbed Dose, Kidney [8]: 1.52 Gy
Cumulative Absorbed Dose, Salivary Glands [8]: 0.88 Gy
Cumulative Absorbed Dose, Bone Marrow, % of dose limit [8]: 11%
Cumulative Absorbed Dose, Kidney, % of dose limit (Patient 11, 1 cycle, 7.80 GBq cumulative, limit 23 Gy): 6.6%
Cumulative Absorbed Dose, Salivary Glands, % of dose limit [8]: 3.7%
Cumulative Absorbed Dose, Bone Marrow [9]: 0.04 Gy
Cumulative Absorbed Dose, Kidney [9]: 1.71 Gy
Cumulative Absorbed Dose, Salivary Glands [9]: 0.79 Gy
Cumulative Absorbed Dose, Bone Marrow, % of dose limit [9]: 2.0%
Cumulative Absorbed Dose, Kidney, % of dose limit (Patient 12, 1 cycle, 7.46 GBq cumulative, limit 23 Gy): 7.4%
Cumulative Absorbed Dose, Salivary Glands, % of dose limit [9]: 3.3%
Cumulative Absorbed Dose, Bone Marrow [10]: 0.05 Gy
Cumulative Absorbed Dose, Kidney [10]: 4.63 Gy
Cumulative Absorbed Dose, Salivary Glands [10]: 3.40 Gy
Cumulative Absorbed Dose, Bone Marrow, % of dose limit [10]: 2.5%
Cumulative Absorbed Dose, Kidney, % of dose limit (Patient 13, 3 cycles, 22.23 GBq cumulative, limit 23 Gy): 20%
Cumulative Absorbed Dose, Salivary Glands, % of dose limit [10]: 14%
Cumulative absorbed doses versus historical EBRT organ dose limits (all patients, both dosing cohorts): below the historical external beam radiation therapy (EBRT) organ dose limits
Equivalent number of treatment cycles to reach the EBRT kidney dose limit of 23 Gy (at 7.4 GBq per cycle, range across the 13 patients): 6–17 cycles
Cumulative absorbed dose to the kidney as % of the EBRT dose limit, highest reached (limit 23 Gy, maximum of three cycles): ≤ 36%
